Several values for one entry are separate records, joined by “and”; a condition that tells them apart may be missing. Equal values may be shown once. Activity calls are given as the source filed them.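 How the source made its calls: active means compounds giving half or more protection of infected cells from virus-caused growth loss, again on retest; inactive means the rest.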
Tested on: CEM cells HIV-1 protection, formazan growth assay
Test: NCI AIDS Antiviral Assay
Settings: for IC50: measured here: growth of uninfected CEM cells
Summary of the method: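 CEM (human) cells, HIV-1 infected vs uninfected, 5-point dosing, formazan growth read-out. Retest threshold 50% protection.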

Structure (SMILES) | EC50 | IC50 | outcome
COC(=O)[C@H](CCSC)NCc1cc(N(C)C)cc(CN[C@@H](CCSC)C(=O)OC)n1 | > 200 µM | > 200 µM | 
CCOc1ccc(-c2nc(-c3oc4ccccc4c(=O)c3OC(C)=O)cs2)cc1 | > 200 µM | 112 µM | 
CC12CCC3C(CCC4=CC(=O)C=CC43C)C1CC(O)C(=O)O2 (stereo not given) | > 200 µM | > 200 µM | 
CN(C)N(CCO)CCO | > 200 µM | > 200 µM | 
COC1CC2CCC(C)[C@](O)(O2)C(=O)C(=O)N2CCCCC2C(=O)OC(C(C)CC2CCC(O)C(OC)C2)CC(=O)C(C)C=C(C)C(OC(=O)CN(C)C)C(OC)C(=O)C(C)CC(C)/C=C/C=C/C=C\1C (stereo not given in full) | > 200 µM | 7.24 µM | 
C=C(C)C1CC2=C(O1)C(=O)c1cccc(O)c1C2=O (stereo not given) | > 2 µM | 0.468 µM | 
O=C1/C(=C/c2ccc(Cl)cc2)Sc2scc(-c3cccc([N+](=O)[O-])c3)[n+]21 | > 200 µM | 1.38 µM | 
O=C1C2CC=CCC2C(=O)N1n1c(Cc2ccccc2)n[nH]c1=O (stereo not given) | > 200 µM | > 200 µM | 
O=S1(=O)CC2(N3CCCCC3)CCCCC21 (stereo not given) | > 891 µM | 219 µM | 
CC(=O)OCCN1CCOC(O)(c2cccc(C(F)(F)F)c2)C1 (stereo not given) | > 200 µM | 117 µM | 
COC(=O)Cc1c([C@@]2(C)CCCC(C)(C)C2)ccc2c1C(=O)OC2 |  |  | inactive
CC(=O)/C(=C/c1cccc(Cl)c1)C(=O)c1ccccc1 | > 34.7 µM | 17 µM | 
CCCCCCCCCCCCS(=O)(=O)O |  |  | inactive
CC1(C)OC(CP(c2ccccc2)c2ccccc2)C(CP(c2ccccc2)c2ccccc2)O1 (stereo not given) | > 2 µM | 0.229 µM | 
C[C@]1(O)CC(=O)c2c(c(-c3ccc4cc5c(c(O)c4c3O)C(=O)C[C@@](C)(O)C5)c3cccc(O)c3c2O)C1 | > 200 µM | 1.32 µM | 
COC(=O)c1c[nH]cc1CCc1c[nH]cc1C(=O)OC |  |  | inactive
O=C(Nc1ccc(/C=C\c2ccc(NC(=O)c3cc(S(=O)(=O)O)c4cccnc4c3O)cc2S(=O)(=O)O)c(S(=O)(=O)O)c1)c1cc(S(=O)(=O)O)c2cccnc2c1O | > 100 µM | > 100 µM | 
CC(C)CCC[C@@H](C)C1CCC2[C@@H]3CC=C4C[C@@H](OS(=O)(=O)O)CC[C@]4(C)C3CC[C@@]21C (stereo not given in full) |  |  | active
Nc1nc2c3nc(Nc4ccccc4)sc3nc(=O)n2c2sc(Nc3ccccc3)nc12 | > 5.89 µM | > 5.89 µM | 
N#C/C(=N/Nc1nc[nH]c1C(N)=O)C(=O)Nc1ccccc1 | > 200 µM | 1.07 µM | 
CC1(CO)COC(C)(C)OC1 | > 1550 µM | 1410 µM | 
CN1C(=O)C(Br)SC1=S (stereo not given) | > 31.6 µM | > 31.6 µM | 
O=C(N/N=C/c1ccco1)c1cccnc1 | > 200 µM | > 200 µM | 

Structure (SMILES) | EC50 | IC50 | outcome
O=C(/C=C(\O)C(=O)O)/C=C(\O)c1ccccc1Cl | 389 µM | 589 µM | 
CC(=N/N=C/c1ccccn1)/C(C)=N/N=C(C)/C(C)=N/N=C(C)/C(C)=N/N=C(C)/C(C)=N\N=C\c1ccccn1 |  |  | inactive
COc1cccc2c1C(=O)c1c(O)c3c(c(O)c1C2=O)C[C@@](O)(C(=O)CO)C[C@@H]3OC1CC(N)C(O)C(C)O1 (stereo not given in full) | > 2.51 µM |  | 
CC(c1ccccc1O)C1CCCCC1N=O (stereo not given) |  |  | inactive
Cc1c(CCO)c(=O)n2c([nH]c3ccccc32)c1C#N | > 107 µM | 85.1 µM | 
CCC(C=O)P1(=O)OC(C)(C)CN1C(C)(C)C (stereo not given) | > 200 µM | 64.6 µM | 
Cc1ccc2c(c1)CC1(Cc3ccccc3C1=O)C2=O (stereo not given) | > 200 µM | 195 µM | 
CCCCC1(c2sccc2C(O)(C(F)F)C(F)(F)F)NC(C)(C)CO1 (stereo not given) | > 200 µM | 126 µM | 
Cc1ccc(-c2cc(=S)ss2)cc1 | > 200 µM | 166 µM | 
O=C(/C=C/c1ccc([N+](=O)[O-])cc1)c1ccc(NCc2nc3ccccc3[nH]2)cc1 | > 13.2 µM | > 13.2 µM | 
Cc1cn(C2CC(ON3C(=O)c4ccccc4C3=O)C(CO)O2)c(=O)[nH]c1=O (stereo not given) | 26.9 µM and > 200 µM | > 200 µM | 
NC1CC(n2ccc(=O)[nH]c2=O)OC1C(O)CO (stereo not given) | > 100 µM | > 100 µM | 
CN(/N=C\c1ccc2ccccc2c1)C1=NCCCCN1 | > 200 µM | 28.8 µM | 
CN1C2CC(C#N)C1C=CC2=O (stereo not given) | > 200 µM | 32.4 µM and 107 µM | 
COC(=O)CC(=O)OSc1ccccc1 | > 251 µM | 18.2 µM | 
c1cc2nnsc2s1 | > 251 µM | > 251 µM | 
Oc1c2c(c(O)c3ccccc13)=N[C@@H](c1ccccc1)[C@H](c1ccccc1)N=2 |  |  | inactive
N#Cc1c(NC(=O)C(F)(F)F)sc2c3c(=O)c4ccccc4c(=O)c=3oc3ccccc3c12 | > 100 µM | 17.4 µM | 
c1ccc(C2CCCNCC2)cc1 (stereo not given) |  |  | inactive
O=C(Cn1ccnc1[N+](=O)[O-])NCc1ccc(F)cc1 | > 178 µM | > 178 µM | 
CCCCCCCCCCCCCCCCOC1OC(CS(=O)(=O)O)C(O)C(O)C1O (stereo not given) | > 138 µM | 40.7 µM | 
CC1NC(=O)CC(c2ccccc2)N(N=O)C1c1ccccc1 (stereo not given) |  |  | inactive
CNc1ccc2[nH]c(=O)ccc2c1[N+](=O)[O-] | > 12 µM | > 12 µM | 

Structure (SMILES) | EC50 | IC50 | outcome
CC(=O)C1C(=O)C(C(C)=O)C2C3C=CC(C3)C12 (stereo not given) | > 200 µM | 74.1 µM | 
Cc1ccc2c(c1)-c1c3c(nn1C)-c1ccccc1SC3O2 (stereo not given) | > 23.4 µM | > 23.4 µM | 
COc1cc(SSc2ccc(N)c(OC)c2)ccc1N | > 200 µM | 26.3 µM | 
CCCCN(CCCC)C(=O)C(=O)C(C(=O)C(=O)OC)c1nc2ccccc2o1 (stereo not given) | > 33.9 µM | > 33.9 µM | 
COc1cc(OC)c(OC)cc1/C=N/N=C(\N)NO | > 200 µM | > 200 µM | 
COc1ccc2c3c(cnc2c1)P(C)(=O)CC3 (stereo not given) |  |  | inactive
Cc1cc(=O)[nH]c(N/N=C/c2ccc(Cl)c(Cl)c2)n1 | > 24.5 µM | 12.3 µM | 
CCCCCCCCCCCCCC/C(C(=O)OC)=C(/O)C(=O)OCC | > 91.2 µM | 28.8 µM | 
Cc1cc(-c2ccc(N=Nc3c(N)c(C)cc(S(=O)(=O)O)c3N)c(C)c2)ccc1N=Nc1ccc(O)c(C(=O)O)c1 | 126 µM | > 200 µM | 
COC(=O)C12CCC(C)(C)CC1C1=CCC3C4(C)CC(O)C(O)C(C)(C(=O)OC)C4CCC3(C)C1(CO)CC2 (stereo not given) |  |  | inactive
O=C(NC12CC3CC(NC(=O)c4ccccc4)(CC(C1)c1ccccc13)C2)c1ccccc1 | > 12 µM | > 12 µM | 
O=C(O)/C=C/c1ccc([N+](=O)[O-])cc1 | > 97.7 µM | > 97.7 µM | 
S=C(NNC1=NCCCCN1)Nc1ccc(Cl)cc1 | > 200 µM | 18.6 µM | 
COc1ccc(CC2(O)C3CC4CCC2C4C3)cc1 (stereo not given) | > 200 µM | 87.1 µM | 
COc1ccc(C2=Nc3ccccc3N=C(SC)C2)cc1 | 2.4 µM | 17.8 µM | 
CN1CSCSC1 |  |  | inactive
COc1cc(/C=C/C(=N\NC(=S)NN)c2sc(NNC(C)=O)nc2C)ccc1O | > 12 µM | > 12 µM | 
C=C1C(=O)O[C@@H]2[C@H]1CC[C@H](C)[C@@H]1CCC(=O)[C@@]21C | > 200 µM | 3.39 µM | 
CCn1c2c(c3ccccc3c1=O)C(=O)c1ccccc1-2 | > 26.3 µM | > 26.3 µM | 
CCC1(C(=O)OC)CCc2c(OC)ccc(OC)c2C1=O (stereo not given) |  |  | inactive
O=c1c(Cl)c(Cl)cnn1-c1ccc([N+](=O)[O-])cc1[N+](=O)[O-] | > 20.4 µM | > 20.4 µM | 
O=S1(=O)[C@H](c2ccccc2)c2c(-c3ccccc3)sc(-c3ccccc3)c2[C@@H]1c1ccccc1 |  |  | inactive
O=C(NCCCCCCCCCCNC(=O)c1cc(O)c(O)c(O)c1)c1cc(O)c(O)c(O)c1 | > 100 µM | 9.12 µM | 

Structure (SMILES) | EC50 | IC50 | outcome
CCN(CC)CCO/N=C1\CC[C@H]2[C@@H]3CCc4cc(OC)ccc4[C@H]3CC[C@]12C | > 20 µM | 2.69 µM | 
O=C(C(Cl)=C(N1CCOCC1)N1CCOCC1)C(Cl)Cl | > 200 µM | 112 µM | 
CC1(C)CN=C(Nc2ccc(F)c(F)c2)S1 | > 200 µM | > 200 µM | 
S=c1sc2ccccc2n1CNc1ccccc1Cl | > 200 µM | 28.2 µM | 
COc1ccccc1Nc1nc2c([nH]1)c(=O)n(C)c(=O)n2C | > 200 µM | > 200 µM | 
COc1cccc(/C=C2\C(=O)N(C(=O)c3ccc(NC(C)=O)cc3)N=C2C)c1 | > 36.3 µM | > 36.3 µM | 
Cc1ncc([N+](=O)[O-])n1CCNC(=O)CCCCn1ccnc1[N+](=O)[O-] | > 200 µM | > 200 µM | 
NNC(=S)N/N=C(\C(=O)Nc1cccc(O)c1)C1C(=O)NC(=S)NC1=O | > 631 µM | 447 µM | 
CC(=O)Nc1ccc(S(=O)(=O)NNC(=O)NNS(=O)(=O)c2ccc(NC(C)=O)cc2)cc1 | > 7.41 µM | > 7.41 µM | 
Cc1c(OCc2cccc3ccccc23)ccc2c(=O)cc(S)oc12 | > 200 µM | 93.3 µM | 
CCO/C(O)=c1/s/c(=C(\C#N)c2nc3ccccc3[nH]2)n(-c2ccccc2)c1=N | > 17.8 µM | 15.1 µM | 
CN(C)/C=C/c1c2c(nc3ccccc13)C(=O)c1cccnc1C2=O |  |  | inactive
Cc1cc(Cl)cc2c1NC(=O)C2(O)CC(=O)c1ccc(Br)cc1 (stereo not given) | > 91.2 µM | 70.8 µM | 
CCOc1nnc(C)o1 | > 1510 µM | > 1510 µM | 
CNC(=O)OCc1nc(SC)n(C)c1COC(=O)NC | > 708 µM | 309 µM | 
C1=CC(=NN=P(c2ccccc2)(c2ccccc2)c2ccccc2)C=C1 |  |  | inactive
NCCCCCC(=O)O | > 200 µM | > 200 µM | 
O=[N+]([O-])c1cc(C(F)(F)F)cc([N+](=O)[O-])c1CCl |  |  | inactive
CN(C)c1nc(N(C)C)nc(N(C)C)n1 | > 34.7 µM | 26.3 µM | 
CSCCC(N)CO (stereo not given) | > 200 µM | > 200 µM | 
COc1cc(OC)cc(OCc2ccc3nc(-c4ccccc4)c(Cl)nc3c2)c1 | > 100 µM | > 100 µM | 
CC(=O)c1ccc(N=Nc2ccc3nonc3c2N)cc1 | > 200 µM | > 200 µM | 
O=C1CCC2(c3ccc(Cl)cc3)Nc3ccccc3N12 (stereo not given) |  |  | inactive

Source: PubChem BioAssay AID179 (DTP/NCI, 2004)
